Values of other authors in PMC11053612, “Membrane-Fusing Vehicles for Re-Sensitizing Transporter-Mediated Multiple-Drug Resistance in Cancer” (Pharmaceutics, 2024).

Columns and labels:
Settings in all cases: ref [23],[24],[25],[26]
ABCG2 = tested on: ABCG2; set-up: method as in PMID 23470221, PMID 7999426, PMID 11309820, PMID 14973080; key: +: whether they are actively transported or not; −: whether they are actively transported or not
ABCB1 = molecular target: T1, ABCB1 (Homo sapiens, UniProt P08183); set-up: method as in PMID 23470221, PMID 7999426, PMID 11309820, PMID 14973080; key: +: whether they are actively transported or not
T1 construct: expressed in transfected cells; host or cells: MDCK II MDR1 (canine kidney MDCK II, transfected; gift of Dr. A. Schinkel, Netherlands Cancer Institute)

ABCC1 = molecular target: T2, ABCC1 (Homo sapiens, UniProt P33527); set-up: method as in PMID 23470221, PMID 7999426, PMID 11309820, PMID 14973080; key: +: whether they are actively transported or not; −: whether they are actively transported or not
T2 construct: expressed in transfected cells; host or cells: MDCK II MRP1 (canine kidney MDCK II, transfected; gift of Dr. A. Schinkel, Netherlands Cancer Institute)
T2 sequence (P33527 whole entry): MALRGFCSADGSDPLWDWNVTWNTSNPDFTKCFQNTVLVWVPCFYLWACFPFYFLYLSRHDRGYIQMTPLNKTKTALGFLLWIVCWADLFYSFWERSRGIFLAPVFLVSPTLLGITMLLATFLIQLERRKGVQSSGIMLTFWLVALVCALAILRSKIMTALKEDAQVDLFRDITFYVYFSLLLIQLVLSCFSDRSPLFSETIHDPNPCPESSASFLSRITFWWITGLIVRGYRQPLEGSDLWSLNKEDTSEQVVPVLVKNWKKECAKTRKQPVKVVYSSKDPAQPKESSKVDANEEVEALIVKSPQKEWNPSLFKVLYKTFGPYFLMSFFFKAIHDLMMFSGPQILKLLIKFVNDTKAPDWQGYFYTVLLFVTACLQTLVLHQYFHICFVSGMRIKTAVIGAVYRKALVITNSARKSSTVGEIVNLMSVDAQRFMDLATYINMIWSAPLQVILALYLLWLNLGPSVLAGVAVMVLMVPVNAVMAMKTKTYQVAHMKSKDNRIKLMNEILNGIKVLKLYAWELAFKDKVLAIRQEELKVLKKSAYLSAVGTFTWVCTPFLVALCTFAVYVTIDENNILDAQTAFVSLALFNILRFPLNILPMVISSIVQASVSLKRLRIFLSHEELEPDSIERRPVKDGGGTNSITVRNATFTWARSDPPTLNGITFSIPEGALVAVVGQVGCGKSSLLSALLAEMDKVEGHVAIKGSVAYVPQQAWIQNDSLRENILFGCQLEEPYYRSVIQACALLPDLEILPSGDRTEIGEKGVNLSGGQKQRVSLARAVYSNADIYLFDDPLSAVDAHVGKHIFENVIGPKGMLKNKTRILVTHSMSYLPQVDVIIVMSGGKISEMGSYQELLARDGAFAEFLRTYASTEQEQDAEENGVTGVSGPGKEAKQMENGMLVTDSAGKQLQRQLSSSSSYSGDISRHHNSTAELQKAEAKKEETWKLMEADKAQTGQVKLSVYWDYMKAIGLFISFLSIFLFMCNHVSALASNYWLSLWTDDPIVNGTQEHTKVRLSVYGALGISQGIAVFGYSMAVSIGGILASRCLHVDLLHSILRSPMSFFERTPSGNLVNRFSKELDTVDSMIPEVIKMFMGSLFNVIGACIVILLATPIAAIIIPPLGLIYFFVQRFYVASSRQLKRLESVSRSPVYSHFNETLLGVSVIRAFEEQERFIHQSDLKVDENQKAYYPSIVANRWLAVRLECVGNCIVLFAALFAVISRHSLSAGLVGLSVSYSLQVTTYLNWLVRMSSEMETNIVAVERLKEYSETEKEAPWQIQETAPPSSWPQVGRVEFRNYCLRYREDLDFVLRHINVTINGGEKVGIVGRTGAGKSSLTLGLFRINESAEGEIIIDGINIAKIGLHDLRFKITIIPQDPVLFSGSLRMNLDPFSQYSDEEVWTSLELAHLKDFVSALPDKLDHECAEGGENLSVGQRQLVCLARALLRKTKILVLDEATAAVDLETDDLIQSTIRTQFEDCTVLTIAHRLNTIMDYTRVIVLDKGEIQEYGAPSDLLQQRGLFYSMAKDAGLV

T1 sequence (P08183 whole entry): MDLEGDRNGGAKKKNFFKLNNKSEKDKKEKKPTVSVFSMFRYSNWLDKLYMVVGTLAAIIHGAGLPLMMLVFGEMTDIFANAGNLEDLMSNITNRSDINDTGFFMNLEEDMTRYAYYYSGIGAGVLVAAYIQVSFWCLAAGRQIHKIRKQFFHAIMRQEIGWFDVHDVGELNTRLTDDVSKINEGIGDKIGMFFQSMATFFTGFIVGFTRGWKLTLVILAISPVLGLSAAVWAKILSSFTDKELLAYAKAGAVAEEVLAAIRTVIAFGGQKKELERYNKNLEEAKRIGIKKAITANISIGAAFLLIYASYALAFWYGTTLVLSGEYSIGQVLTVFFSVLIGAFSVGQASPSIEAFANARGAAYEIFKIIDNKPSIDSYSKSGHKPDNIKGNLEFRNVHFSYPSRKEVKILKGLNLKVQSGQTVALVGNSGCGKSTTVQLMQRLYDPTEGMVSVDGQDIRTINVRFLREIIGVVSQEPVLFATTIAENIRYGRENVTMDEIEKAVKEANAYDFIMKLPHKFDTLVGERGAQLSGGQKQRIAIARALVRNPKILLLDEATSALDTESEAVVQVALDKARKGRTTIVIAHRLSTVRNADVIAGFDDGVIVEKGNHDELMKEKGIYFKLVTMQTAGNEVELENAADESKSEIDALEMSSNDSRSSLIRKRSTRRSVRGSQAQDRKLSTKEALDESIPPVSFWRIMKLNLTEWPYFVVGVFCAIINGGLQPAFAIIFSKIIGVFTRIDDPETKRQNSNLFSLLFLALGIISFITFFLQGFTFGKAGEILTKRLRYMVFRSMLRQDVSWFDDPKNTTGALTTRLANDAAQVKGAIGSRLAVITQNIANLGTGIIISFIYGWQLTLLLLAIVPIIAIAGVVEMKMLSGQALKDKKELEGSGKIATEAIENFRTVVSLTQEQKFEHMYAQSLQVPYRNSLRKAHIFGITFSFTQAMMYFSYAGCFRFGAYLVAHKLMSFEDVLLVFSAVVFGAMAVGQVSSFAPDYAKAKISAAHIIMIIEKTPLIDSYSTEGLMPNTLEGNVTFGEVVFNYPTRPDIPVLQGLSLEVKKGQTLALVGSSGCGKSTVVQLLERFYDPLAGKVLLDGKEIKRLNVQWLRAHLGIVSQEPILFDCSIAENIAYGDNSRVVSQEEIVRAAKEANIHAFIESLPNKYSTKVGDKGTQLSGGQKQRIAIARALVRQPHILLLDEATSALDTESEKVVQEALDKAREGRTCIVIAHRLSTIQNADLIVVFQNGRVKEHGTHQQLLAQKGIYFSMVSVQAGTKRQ

Row | actively transported by ABCC1 (ABCC1) | Compound | actively transported by ABCG2 (ABCG2) | actively transported by ABCB1 (ABCB1)
1 | + | O=C(O)CN(CC(=O)O)Cc1cc2c(cc1O)Oc1cc(O)c(CN(CC(=O)O)CC(=O)O)cc1C21OC(=O)c2ccccc21 [Calcein] | − | +
2 | − | CCOc1ccc(-c2nc3ccc(-c4nc5ccc(N6CCN(C)CC6)cc5[nH]4)cc3[nH]2)cc1 [Hoechst 33324] | + | 
3 | − | C=Cc1c(C)c2cc3nc(c4c5[nH]c(cc6nc(cc1[nH]2)C(C)=C6CC)c(C)c5C(=O)[C@@H]4C(=O)OC)[C@@H](CCC(=O)O)[C@@H]3C [Pheophorbide A] | + | 

Row | Compound | actively transported by ABCC1 (ABCC1) | actively transported by ABCG2 (ABCG2) | actively transported by ABCB1 (ABCB1)
4 | COC(=O)c1ccccc1-c1c2ccc(=N)cc-2oc2cc(N)ccc12 [Rhodamine 123] | + | − | +
